# Measured values taken from paper PMC11101759, “Inhibitors of dermatan sulfate epimerase 1 decreased accumulation of glycosaminoglycans in mucopolysaccharidosis type I fibroblasts” (Glycobiology, 2024).
# Experiments:
# [1] = molecular target: T1, DS-epi1 (truncated form, amino acid 23–775-HIS) (Homo sapiens, UniProt Q9UL01); assay: DS-epi1 epimerase activity assay; format: biochemical
# T1 construct: gene DSE; truncated, residues 23-775, HIS tag
# [2] = molecular target: T2, HSepi; heparan sulfate glucuronyl C-5 epimerase (GLCE) (Homo sapiens, UniProt O94923); assay: HSepi epimerase activity assay, lysate of transfected […]HEK; format: biochemical; settings: read-out: % inhibition at 1,000 μM
# T2 sequence (O94923 29-617): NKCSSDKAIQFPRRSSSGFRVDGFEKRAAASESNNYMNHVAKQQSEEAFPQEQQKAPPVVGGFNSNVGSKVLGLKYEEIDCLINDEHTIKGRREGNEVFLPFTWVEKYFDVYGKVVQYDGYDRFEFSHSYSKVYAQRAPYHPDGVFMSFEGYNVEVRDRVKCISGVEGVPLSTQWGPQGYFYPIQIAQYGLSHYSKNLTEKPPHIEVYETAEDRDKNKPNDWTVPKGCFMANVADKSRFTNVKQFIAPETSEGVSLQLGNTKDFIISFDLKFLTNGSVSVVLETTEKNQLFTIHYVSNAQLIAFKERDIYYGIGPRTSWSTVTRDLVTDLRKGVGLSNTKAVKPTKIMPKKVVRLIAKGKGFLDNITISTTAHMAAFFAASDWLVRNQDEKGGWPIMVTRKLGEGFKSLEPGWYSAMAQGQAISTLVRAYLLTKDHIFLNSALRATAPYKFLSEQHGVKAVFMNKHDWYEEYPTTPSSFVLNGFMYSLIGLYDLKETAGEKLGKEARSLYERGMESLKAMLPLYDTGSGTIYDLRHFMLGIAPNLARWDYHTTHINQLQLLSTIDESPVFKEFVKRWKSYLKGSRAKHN
smiles,measurement,setting,value
"CN(c1cc(-c2ccccc2)nc(SCc2ccc(C(=O)O)o2)n1)C1CCCCC1 [compound 3, inhibitor 3]",IC50,[1],12 µM
same,inhibition at 1000 µM,[2],69%
"CCCN(C)c1cc(-c2ccccc2)nc(SCc2cccc(C(=O)O)c2)n1 [compound 11, inhibitor 11]",IC50,[1],16 µM
same,inhibition at 1000 µM,[2],47%
